One block for each compound: values may come before it.
Experiments:
Hsp90α = Hsp90α (Homo sapiens, UniProt P07900); assay: FP saturation binding assay of probes, Hsp90α; details: mP at saturation minus mP of probe alone
Hsp90β = Hsp90β (Homo sapiens, UniProt P08238); assay: FP saturation binding assay of probes, Hsp90β; details: mP at saturation minus mP of probe alone
Grp94 = Grp94 (Canis lupus familiaris, UniProt P41148); assay: FP saturation binding assay of probes, Grp94; parameters: species or system canine; details: for assay window, Grp94: mP at saturation minus mP of probe alone
Grp94, sequence (P41148 22-804): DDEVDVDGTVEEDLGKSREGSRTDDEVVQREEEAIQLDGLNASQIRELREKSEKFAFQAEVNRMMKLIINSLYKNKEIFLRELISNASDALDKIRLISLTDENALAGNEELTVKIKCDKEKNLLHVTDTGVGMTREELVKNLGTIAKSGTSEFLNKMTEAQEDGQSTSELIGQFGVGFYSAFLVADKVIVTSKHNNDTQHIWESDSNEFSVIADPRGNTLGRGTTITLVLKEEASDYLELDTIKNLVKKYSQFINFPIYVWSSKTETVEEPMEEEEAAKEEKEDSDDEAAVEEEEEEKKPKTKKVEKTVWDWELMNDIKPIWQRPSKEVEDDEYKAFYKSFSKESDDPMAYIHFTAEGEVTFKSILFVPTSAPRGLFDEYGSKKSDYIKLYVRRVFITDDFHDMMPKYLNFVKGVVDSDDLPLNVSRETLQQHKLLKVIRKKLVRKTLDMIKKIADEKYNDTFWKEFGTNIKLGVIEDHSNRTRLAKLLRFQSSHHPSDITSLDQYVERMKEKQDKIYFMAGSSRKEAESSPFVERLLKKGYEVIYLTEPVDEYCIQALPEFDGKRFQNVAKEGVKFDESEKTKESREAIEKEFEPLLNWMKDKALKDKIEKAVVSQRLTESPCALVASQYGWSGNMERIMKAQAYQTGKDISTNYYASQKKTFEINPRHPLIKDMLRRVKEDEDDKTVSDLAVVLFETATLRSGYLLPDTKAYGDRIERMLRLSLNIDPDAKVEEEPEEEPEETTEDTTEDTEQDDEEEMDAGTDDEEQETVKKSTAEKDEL

Hsp90 in SKBr3 lysate = assay: FP saturation binding of probes to Hsp90 in cancer cell lysate; parameters: species or system human; details: 4 °C
Trap-1 [1] = details: cited from earlier work
Trap-1 [2] = biological target: T1, Trap-1 (Homo sapiens, UniProt Q12931); details: from FP competition IC50, Table 1
T1 sequence (Q12931 60-704): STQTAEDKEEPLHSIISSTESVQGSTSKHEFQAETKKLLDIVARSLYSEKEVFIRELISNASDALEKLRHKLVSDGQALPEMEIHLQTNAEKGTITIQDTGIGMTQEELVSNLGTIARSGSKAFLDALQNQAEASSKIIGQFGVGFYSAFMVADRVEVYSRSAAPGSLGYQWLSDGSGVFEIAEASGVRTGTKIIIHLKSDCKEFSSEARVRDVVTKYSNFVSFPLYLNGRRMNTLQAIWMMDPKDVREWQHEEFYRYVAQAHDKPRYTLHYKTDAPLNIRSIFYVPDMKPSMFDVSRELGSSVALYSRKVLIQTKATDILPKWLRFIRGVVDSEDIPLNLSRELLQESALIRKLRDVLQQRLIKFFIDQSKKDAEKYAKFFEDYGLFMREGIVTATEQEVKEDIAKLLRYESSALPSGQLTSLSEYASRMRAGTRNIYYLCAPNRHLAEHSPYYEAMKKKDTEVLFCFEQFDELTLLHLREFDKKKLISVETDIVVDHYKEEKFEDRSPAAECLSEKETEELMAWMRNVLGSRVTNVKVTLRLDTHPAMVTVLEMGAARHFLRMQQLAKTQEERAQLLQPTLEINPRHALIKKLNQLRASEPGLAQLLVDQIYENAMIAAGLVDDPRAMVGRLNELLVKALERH

Hsp90β, sequence (P08238 whole entry): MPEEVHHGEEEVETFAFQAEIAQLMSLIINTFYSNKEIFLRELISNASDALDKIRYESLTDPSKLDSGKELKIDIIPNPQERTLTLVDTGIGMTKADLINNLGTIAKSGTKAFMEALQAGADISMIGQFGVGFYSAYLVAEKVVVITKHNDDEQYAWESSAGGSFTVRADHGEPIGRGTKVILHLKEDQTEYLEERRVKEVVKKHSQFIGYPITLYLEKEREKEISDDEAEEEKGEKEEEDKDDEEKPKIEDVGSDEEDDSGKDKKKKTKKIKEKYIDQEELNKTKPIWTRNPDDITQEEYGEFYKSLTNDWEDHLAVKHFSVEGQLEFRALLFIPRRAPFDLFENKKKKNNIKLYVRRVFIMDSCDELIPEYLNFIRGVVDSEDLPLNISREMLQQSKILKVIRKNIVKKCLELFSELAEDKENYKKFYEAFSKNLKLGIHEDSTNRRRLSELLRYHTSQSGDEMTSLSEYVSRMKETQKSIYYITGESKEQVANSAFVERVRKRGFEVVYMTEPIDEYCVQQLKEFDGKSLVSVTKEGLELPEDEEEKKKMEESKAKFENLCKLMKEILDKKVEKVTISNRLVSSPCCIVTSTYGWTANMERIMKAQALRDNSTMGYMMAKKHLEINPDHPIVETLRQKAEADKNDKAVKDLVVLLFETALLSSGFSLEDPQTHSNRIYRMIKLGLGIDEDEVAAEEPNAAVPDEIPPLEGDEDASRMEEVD

decrease in binding affinity for Trap-1 compared to Hsp90 (Trap-1 [2]): 5 fold
SMILES: CC(C)NCCCn1c(Sc2cc3c(cc2I)OCO3)nc2c(N)ncnc21 [compound 4]

decrease in binding affinity for Trap-1 compared to Hsp90 (Trap-1 [2]): 50 fold | loss of affinity for Trap-1 vs Hsp90 (Trap-1 [2]): ~2 log
SMILES: CN(C)c1cc2c(cc1Sc1nc3c(N)nccc3n1CCNCC(C)(C)C)OCO2 [compound 5]

preference for Hsp90α, Hsp90β and Trap-1 over Grp94 (Grp94; from apparent Kd, saturation binding): 1 log | assay window, Grp94 (Grp94): less than 100 mP
SMILES: CC(C)N(CCCn1c(Sc2cc3c(cc2I)OCO3)nc2c(N)ncnc21)C(=S)Nc1ccc(-c2c3ccc(=O)cc-3oc3cc(O)ccc23)c(C(=O)O)c1 [compound 12]

The remaining lines, values behind:

SMILES: Nc1ncnc2c1nc(Sc1cc3c(cc1I)OCO3)n2CCCNC(=S)Nc1ccc(-c2c3ccc(=O)cc-3oc3cc(O)ccc23)c(C(=O)O)c1 [16a]
assay window, Hsp90α (Hsp90α): > 150 mP | assay window, Hsp90β (Hsp90β): > 150 mP | assay window, Grp94 (Grp94): > 150 mP | time binding remained stable (Hsp90 in SKBr3 lysate): more than 24 h | time to reach binding equilibrium with Hsp90 (Hsp90 in SKBr3 lysate): ≤ 8 h

SMILES: Nc1ncnc2c1ncn2[C@@H]1O[C@H](COP(=O)(O)OP(=O)(O)OP(=O)(O)O)[C@@H](O)[C@H]1O [ATP]
reported greater affinity of Trap-1 than of Hsp90 (Trap-1 [1]): approximately 10 fold | Kd (Trap-1 [1]; read-out: reported binding affinity for Trap-1): 34.3 µM

SMILES: COC1=C2C[C@@H](C)C[C@H](OC)[C@H](O)[C@@H](C)/C=C(\C)[C@H](OC(N)=O)[C@@H](OC)/C=C\C=C(/C)C(=O)NC(=CC1=O)C2=O [compound 1, Geldanamycin]
decrease in binding affinity for Trap-1 compared to Hsp90 (Trap-1 [2]): 25 fold

SMILES: C=CCNC1=C2C[C@@H](C)C[C@H](OC)[C@H](O)[C@@H](C)/C=C(\C)[C@H](OC(N)=O)[C@@H](OC)/C=C\C=C(/C)C(=O)NC(=CC1=O)C2=O [compound 2, 17-allyl-17-demethoxygeldanamycin]
loss of affinity for Trap-1 vs Hsp90 (Trap-1 [2]): ~2 log

SMILES: COc1c(C)cnc(Cn2cnc3c(Cl)nc(N)nc32)c1C [compound 3]
decrease in binding affinity for Trap-1 compared to Hsp90 (Trap-1 [2]): 5 fold

SMILES: CCNC(=O)c1noc(-c2cc(C(C)C)c(O)cc2O)c1-c1ccc(CN2CCOCC2)cc1 [compound 7]
decrease in binding affinity for Trap-1 compared to Hsp90 (Trap-1 [2]): 2 fold
